Patent publication US8163509B2, “Biological markers predictive of anti-cancer response to insulin-like growth factor-1 receptor kinase inhibitors” (The Regents of the University of Colorado, A Body Corporate, priority 2008, dated 2012)
Where two headings read alike, the source gives them in different places.

Experiments:
human tumor explants = test: In vivo growth study, primary CRC xenografts (human tumor explants); design: species or system athymic nude mice; conditions: OSI-906 40 mg/kg, 28 days
Experimental: In vivo Growth Studies: Five to six-week-old female athymic nude mice (Harlan Sprague Dawley) were used. The research protocol was approved by the University of Colorado Denver, Animal Care and Use Committee. Mice were caged in groups of five and kept on 12-h light/dark cycle and provided with sterilized food and water ad libitum. All of the studies were conducted in accordance with the NIH guidelines for the care and use of laboratory animals, and animals were housed in a facility accredited by the American Association for Accreditation of Laboratory Animal Care. Animals were allowed to acclimate for at least 7 days before any handling.
The primary CRC xenografts were generated according to published methodology (Rubio-Viqueira B, et al. Clin Cancer Res 2006; 12(15):4652-61.). Briefly, surgical specimens of patients operated at the University of Colorado Hospital were reimplanted s.c. to 5 mice for each patient. […] Mice were monitored daily for signs of toxicity and were weighed twice weekly. Tumor size was evaluated two times per week by caliper measurements using the following formula: tumor volume=[length×width^2][…]. Relative tumor growth index was calculated by relative tumor growth of treated mice divided by relative tumor growth of control mice since the initiation of therapy (T/C). […]

GEO CRC cell line = test: SRB proliferation assay, 72 h; assay type: cell-based; conditions: Homo sapiens
Experimental: Cell proliferation was evaluated by SRB following exposure to OSI-906 for 72 hours. Cells were plated at an optimized density in 96-well plates, incubated overnight at 37° C., and then exposed to a serial dilution of OSI-906. After 72 hours incubation, cells were fixed with trichloroacetic acid and an SRB was performed as described in materials and methods.
Cell Lines and Culture: Twenty-seven human colon cancer cell lines, were obtained from American Type Culture Collection (Manassas, Va.). The GEO cells were a generous gift from Dr. Fortunato Ciardiello (Cattedra di Oncologia Medica, Dipartimento Medico-Chirurgico di Internistica Clinica e Sperimentale “F Magrassi e A Lanzara,” Seconda Università degli Studi di Napoli, Naples). All cells except GEO were grown in RPMI medium supplemented with 10% fetal bovine serum, 1% non-essential amino acids, 1% penicillin/streptomycin and were maintained at 37° C. in an incubator under an atmosphere containing 5% CO2. GEO cells were grown in DMEM/F12 supplemented with 10% fetal bovine serum, 1% non-essential amino acids, 1% penicillin/streptomycin. The cells were routinely screened for the presence of mycoplasma (MycoAlert, Cambrex Bio Science, Baltimore, Md.) and were exposed to OSI-906 when they reached approximately 70% confluence. OSI-906 was provided by OSI Pharmaceuticals, (Boulder, Colo.) and prepared as a 10 mM stock solution in DMSO.

Colo320 CRC cell line = test: SRB proliferation assay, 72 h; assay type: cell-based; conditions: Homo sapiens, COLO 320, 0.05-5 μM, read-out: IC50, growth inhibition by PQIP (SRB)
Experimental: Cell Lines and Culture. […] human colon cancer cell lines, were obtained from American Type Culture Collection (Manassas, Va.). Cells were grown in RPMI medium supplemented with 10% fetal bovine serum, 1% non-essential amino acids, 1% penicillin/streptomycin and were maintained at 37° C. in an incubator under an atmosphere containing 5% CO2. The cells were routinely screened for the presence of mycoplasma (MycoAlert, Cambrex Bio Science, Baltimore, Md.) and were exposed to PQIP when they reached approximately 70% confluence.
The CRC cell lines were treated with a range of concentrations of PQIP (from 0.05-5 μM) for 72 hours.

SMILES	TGI (relative tumor growth index, T/C) (human tumor explants; three explants predicted as resistant)	TGI (relative tumor growth index, T/C) (human tumor explants; two explants predicted as sensitive)	IC50 (GEO CRC cell line; 72 hours, read-out: IC50, proliferation, OSI-906 (SRB))	IC50 (GEO CRC cell line; read-out: S/I/R to OSI-906)	IC50 (Colo320 CRC cell line)
C[C@]1(O)C[C@@H](c2nc(-c3ccc4ccc(-c5ccccc5)nc4c3)c3c(N)nccn32)C1 [OSI-906, cis-3-[8-amino-1-(2-phenyl-quinolin-7-yl)-imidazo[1,5-a]pyrazin-3-yl]-1-methyl-cyclobutanol]	130-200%	21-28%	≤ 1500 nM	≤ 1500 nM	
CN1CCN([C@H]2C[C@@H](c3nc(-c4ccc5ccc(-c6ccccc6)nc5c4)c4c(N)nccn43)C2)CC1 [PQIP, cis-3-[3-(4-Methyl-piperazin-1-yl)-cyclobutyl]1-(2-phenyl-quinolin-7-yl)-imidazo[1,5-a]pyrazin-8-ylamine]					< 500 nM
